Test results taken from patent US8119672B2, “Compounds, compositions and methods for treating or preventing pneumovirus infection and associated diseases” (Microdose Therapeutx, Inc., priority 2002, dated 2012).

Experiment: Solubility in ethanol/propylene glycol/water (85:10:5)
Type: physicochemical
Settings: R1 in meta position (compound of the invention); ethanol/propylene glycol/water (85:10:5) by volume
Method: The solubilities are measured in ethanol/propylene glycol/water (85:10:5) (proportions are by volume).

Compound	Meta Position Solubiity
3-[[Bis[[5-(5-methyl-1H-tetrazol-1-yl)imino]methyl]-2-hydroxyphenyl]methylene] -N,N-dimethylbenzenesulfonamide [Example 31]	0.08 mg/mL
CCCc1cccc(C(c2cc(C=Nn3nnnc3C)ccc2O)c2cc(C=Nn3nnnc3C)ccc2O)c1 (stereo not drawn) [Example 1, 2,2′-[(3-Propylphenyl)methylene]bis[4-[[(5-methyl-1H-tetrazol-1-yl)imino]methyl]]phenol]	1.9 mg/mL
Cc1nnnn1N=Cc1ccc(O)c(C(c2cccc(N(C)C)c2)c2cc(C=Nn3nnnc3C)ccc2O)c1 (stereo not drawn) [Example 2, 2,2′-[[(3-Dimethylamino)phenyl]methylene]bis[4-[[(5-methyl-1H-tetrazol-1-yl)imino]methyl]]phenol]	2.10 mg/mL
CCOc1cccc(C(c2cc(C=Nn3nnnc3C)ccc2O)c2cc(C=Nn3nnnc3C)ccc2O)c1 (stereo not drawn) [Example 6, 2,2′-[(3-Ethoxyphenyl)methylene]bis[4-[[(5-methyl-1H-tetrazol-1-yl)imino]methyl]]phenol]	1.85 mg/mL
CCN(CC)c1cccc(C(c2cc(C=Nn3nnnc3C)ccc2O)c2cc(C=Nn3nnnc3C)ccc2O)c1 (stereo not drawn) [Example 20, 2,2′-[[(3-Diethylamino)phenyl]methylene]bis[4-[[(5-methyl-1H-tetrazol-1-yl)imino]methyl]]phenol]	1.45 mg/mL
Cc1nnnn1N=Cc1ccc(O)c(C(c2cccc([N+](=O)[O-])c2)c2cc(C=Nn3nnnc3C)ccc2O)c1 (stereo not drawn) [Example 27, 2,2′-[(3-Nitrophenyl)methylene]bis[4-[[(5-methyl-1H-tetrazol-1-yl)imino]methyl]]phenol]	0.98 mg/mL
